The assay relates to MDA-MB-468 breast. The assay can be described thus: inhibition of tumour cell growth, NCI panel, 48 h.

Values joined by “and” are separate entries in the source; they are usually repeats but may differ in a detail not shown here. Equal values may be shown once.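 The compound was tested at five concentrations on cells cultured in 96-well plates, with a 48-hour exposure period. GI50: concentration for 50% inhibition of growth. The concentration for full growth arrest is given as TGI.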 Where a SMILES comes first, the peptide text is derived from it. Some results are limits rather than exact numbers.

Regarding `COc1cc(-c2cc(-c3nc4ccc(F)cc4[nH]3)[nH]n2)cc(OC)c1OC`, the GI50 was 1560 nM and the TGI is 9670 nM.

For `Cc1cccc(-n2cnc3cc(C(=O)N4CCCCC4)ccc32)c1`, the GI50 was 18600 nM and the TGI was > 100000 nM.

Turning to `C#CC(F)(F)[C@]1(O)CC[C@H]2[C@@H]3CCC4=CC(=O)CCC4=C3[C@@H](c3ccc(C4CC4)cc3)C[C@@]21C`, the GI50 was 121 nM and 265 nM; the TGI was 438 nM and 1520 nM.

Turning to `CCNC(=O)N1CCc2c(Cl)c3c(c(OC)c2[C@@H]1[C@H]1OCc2c1ccc(OC)c2OC)OCCO3`, the GI50 was 2650 nM and the TGI is > 100000 nM.

With `COC(=O)N[C@H]1C=C[C@@H]2/C=C(C)/C=C/[C@@H](C)[C@H]([C@H](C)[C@H](O)[C@@H](C)NC(C)=O)OC(=O)/C=C/C=C(C)\C=C\[C@]2(C)C1`, the GI50 is 4.32 nM and 4.53 nM; the TGI was > 45300 nM.

`CCCCCCC(O)(c1ccc(F)cc1)C(CN1CCOCC1)c1ccccc1` (stereo not given): the GI50 is 4930 nM and the TGI amounted to 18600 nM.

For `O=C1NC(=NCc2c(Cl)cccc2Cl)S/C1=C\c1ccc2ncccc2c1`, the GI50 is 6240 nM and the TGI is > 25000 nM.

As to `O=C(Nc1ccccc1C(=O)N/N=C(\c1ccccc1)c1ccccn1)c1ccccc1`, the GI50 was 338 nM and the TGI was 2380 nM.

Regarding `NS(=O)(=O)c1ccc(N=Nc2c(O)[nH]c3ccc(Cl)cc23)cc1`, the GI50 is > 20100 nM and the TGI was > 25000 nM.

For the compound `Fc1ccc(-c2ncn(C3CCNCC3)c2-c2ccnc(Oc3cccc(C(F)(F)F)c3)n2)cc1`, the GI50 is 1570 nM and the TGI is 5310 nM.

On to `O=S(=O)(Nc1cc(F)cc(F)c1)c1ccc(-c2cnc(C3CC3)o2)cc1`, for which the GI50 was 1370 nM and the TGI was 17900 nM.

As to `Cn1cc(-c2nc(N)nnc2-c2c[nH]c3ccccc23)c2cc(Br)ccc21`, the GI50 was 342 nM and the TGI turned out to be 2040 nM.

For the compound `O=C1C=CC2(NN=C(c3ccccc3)N2c2ccccc2)c2cccc(O)c21` (stereo not given), the GI50 was 1920 nM and the TGI stood at 9090 nM.

For `C=C(C)[C@@H]1CC[C@]2(C(N)=O)CC[C@]3(C)[C@H](CC[C@@H]4[C@@]5(C)C/C(=C/c6cccnc6)C(=O)C(C)(C)[C@@H]5CC[C@]43C)[C@@H]12`, the GI50 was 3500 nM and the TGI worked out at 40500 nM.

In the case of `CCCCCN1C(=O)/C(=c2\sc3n(c2=O)C2C(NN=3)N(CC)C(=O)N2CC)c2ccccc21` (stereo not given), the GI50 is 369 nM and the TGI turned out to be 2000 nM.

With `CC(=O)/C(=C\c1c(-c2ccccc2)[nH]c2ccccc12)S(C)(=O)=O`, the GI50 is 1790 nM and the TGI amounted to 8100 nM.

As for `CCC(C)C1NC(=O)C(CCCCN)NC(=O)C(CCCCN)NC(=O)C(CC(C)C)NC(=O)C(CCCCN)NC(=O)C(C(C)CC)NC(=O)C(C(C)C)NC(=O)C(C(C)CC)NC(=O)C(CCCCN)NC(=O)C(CCCCN)NC(=O)C(C)NC(=O)C(CCCCN)NC(=O)C(CC(C)C)NC1=O` (stereo not given) (cyclo(AKKIVIKLKKILK); configuration not given here), the GI50 is 564 nM and the TGI amounted to 2300 nM.

For `COc1ccc(/C=C/C(=O)Nc2cc(/C=C\c3cc(OC)c(OC)c(OC)c3)cc(OC)c2OC)cc1OC`, the GI50 is 1740 nM and the TGI was 7520 nM.

Consider `C#CCNCCCN1C(=O)c2ccc3c4c(ccc(c24)C1=O)C(=O)N(CCCNCC#C)C3=O`, for which the GI50 was 129 nM and the TGI stood at 308 nM.

Turning to `O=Cc1cn(Cc2ccccc2)c2ccccc12`, the GI50 was 174 nM and the TGI came out at 469 nM.

As for `CCNCCNc1cc(-c2ccc(Cl)c(Cl)c2)c(C#N)c2nc3ccccc3n12`, the GI50 was 1140 nM and the TGI was 2520 nM.

Consider `Cn1cc(-c2csc(-c3c[nH]c4ccccc34)n2)c2cccnc21`, for which the GI50 is 915 nM and the TGI turned out to be 4180 nM.

`COc1cc2nccc(Oc3ccc(NC(=O)C4(C(=O)Nc5ccc(F)cc5)CC4)cc3)c2cc1OC(=O)c1ccc(N)cc1`: the GI50 is 3990 nM and the TGI was > 100000 nM.

Take `CCCCCCCCCCCCCCCC(=O)Nc1ccn([C@@H]2O[C@H](CO)[C@@H](O)[C@@H]2C#N)c(=O)n1`: the GI50 was 48700 nM and the TGI is > 100000 nM.

Take `Cn1cc(C2=C(n3ccc4ccccc43)C(=O)NC2=O)c2ccccc21`: the GI50 was > 25000 nM and the TGI was > 25000 nM.

Turning to `COc1ccc2nc3c(n2c1)C(=O)C(=O)c1ccccc1-3`, the GI50 was 2180 nM and the TGI was 5630 nM.

Take `C#CC#CC#CC#CC#CC#CC#CC#CC[C@@H]1OC[C@H](COC(=O)O[C@@H](C(=O)O[C@H]2C[C@@]3(O)[C@@H](OC(=O)c4ccccc4)[C@@H]4[C@]5(OC(C)=O)CO[C@@H]5C[C@H](O)[C@@]4(C)C(=O)[C@H](OC(C)=O)C(=C2C)C3(C)C)[C@@H](NC(=O)c2ccccc2)c2ccccc2)O1`: the GI50 was 439 nM and the TGI came to 1590 nM.

Consider `CC(C)(C(=O)NCC(F)(F)C(F)(F)F)C(=O)N[C@@H]1C(=O)Nc2ccccc2-c2ccccc21`, for which the GI50 was 12700 nM and the TGI was determined as 73000 nM.

Consider `COc1ccc(/C=C(/C(=O)N2CCCCC2)c2cc(OC)c(OC)c(OC)c2)cc1`, for which the GI50 is 498 nM and the TGI was > 100000 nM.

Consider `COc1ccc(CCc2nc3cc(-c4c(C)noc4C)ccc3n2CCN2CCOCC2)cc1`, for which the GI50 was 8780 nM and the TGI is > 100000 nM.

Regarding `CCCCCCCCn1ccc2cc(NC(=O)Cn3cc(CN4CCN(CC)CC4)nn3)ccc21`, the GI50 is 1530 nM and the TGI came out at 3040 nM.

As for `O=S(=O)(Nc1ccc2ccccc2c1)N1CCCCC1`, the GI50 is 2810 nM and the TGI was 10300 nM.

In the case of `CCOc1ccccc1C(=O)/C=C/c1cc2ccccc2[nH]c1=O`, the GI50 was 162 nM and the TGI was found to be 1630 nM.

`COc1ccc(C(O)c2cc3c(N)c(C(=O)Nc4ccccc4)sc3nc2C)cc1` (stereo not given): the GI50 was 29.8 nM and the TGI was > 100000 nM.

Take `COC(=O)[C@]12CC[C@@H](C)[C@H](C)[C@@H]1C1=CC[C@@H]3[C@@]4(C)C[C@@H](OC(C)=O)[C@H](O)[C@@](C)(CO)[C@@H]4[C@H](O)C[C@@]3(C)[C@]1(C)CC2`: the GI50 was 8550 nM and the TGI was 22800 nM.

Source of the values: PubChem BioAssay (NCI).
